Measured values taken from patent US8080657B2, “Compounds of reverse turn mimetics and the use thereof” (Choongwae Pharma Corporation, priority 2008, dated 2011).
Like-named read-outs stand apart in the source and are kept apart here.

Molecular target: T1, cDNA-expressed human hepatic CYP3A4 (Homo sapiens, UniProt P08684)
T1 construct: purchased BD Gentest 456202
Test: P450 CYP3A4 inhibitory activity screening (BFC substrate, fluorescence)
Type: biochemical
Method: P450 CYP3A4 Inhibitory Activity Screening
Assay was conducted in a 200 μL volume in 96-well microtiter plates using cDNA-expressed human hepatic CYP3A4 (supersome, BD Gentest™ #456202). 7-Benzyloxy-4-trifluoromethyl-coumarin (BFC) was used as a substrate for CYP3A4. Test articles and substrate BFC were dissolved in 100% acetonitrile. The final volume of acetonitrile in the incubation mixture was less than 1% (volume/volume). Potassium phosphate buffer (pH 7.4, final concentration 0.1 M), MgCl2 (final concentration 8.3 mM), EDTA (final concentration 1.67 mM), a test article stock solution, a CYP3A4 supersome and NADPH (final concentration 0.25 mM) were added to each well. The reaction was initiated by the addition of substrate (BFC, final concentration 30 µM) after a 10 min pre-incubation at 37° C. After 10 min incubation at 37° C., the reaction was terminated by the addition of 75 μL of acetonitrile:0.5 M Tris-base=4:1 (volume/volume). Thereafter, Fluorescent signal was measured using a fluorometer. BFC metabolite, 7-hydroxy-4-trifluoromethyl-coumarin, was measured using an excitation wavelength of 409 nm and an emission wavelength of 530 nm.

[1] = human CYP3A4 supersome, substrate BFC, 10 min incubation at 37° C., read-out: IC50 values of Compounds against CYP3A4 activity
[2] = P450 CYP3A4 inhibitory activity screening, fluorescent assay, read-out: CYP3A4 inhibition, IC50 (μM) fluorescent assay

T1 sequence (P08684 whole entry): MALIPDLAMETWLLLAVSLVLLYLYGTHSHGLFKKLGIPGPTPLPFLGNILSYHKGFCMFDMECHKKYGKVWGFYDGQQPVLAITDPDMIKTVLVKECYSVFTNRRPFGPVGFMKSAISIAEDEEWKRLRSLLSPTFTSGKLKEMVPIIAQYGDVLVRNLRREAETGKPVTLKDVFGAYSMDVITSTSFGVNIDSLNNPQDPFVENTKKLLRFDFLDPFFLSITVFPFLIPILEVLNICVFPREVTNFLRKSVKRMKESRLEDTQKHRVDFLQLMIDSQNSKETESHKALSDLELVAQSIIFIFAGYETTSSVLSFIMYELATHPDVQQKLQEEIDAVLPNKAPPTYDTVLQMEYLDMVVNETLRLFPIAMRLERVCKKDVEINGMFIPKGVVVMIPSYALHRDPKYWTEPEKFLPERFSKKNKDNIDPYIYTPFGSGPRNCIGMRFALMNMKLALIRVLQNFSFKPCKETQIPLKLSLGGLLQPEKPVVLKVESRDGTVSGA

Work on `C=CCN1CC(=O)N2[C@@H](Cc3ccc(O)cc3)C(=O)N(Cc3cccc(NC(=O)OC)c3)C[C@@H]2N1C(=O)NCc1ccccc1` (single isomer, unassigned) [C] yielded an IC50 [1] of 24.2 µM.
`C=CCN1CC(=O)N2[C@@H](Cc3ccc(O)cc3)C(=O)N(Cc3cccc(C(=O)NC)n3)C[C@@H]2N1C(=O)NCc1ccccc1` [A] was tested, and the IC50 [1] was 13.1 µM.
`C=CCN1CC(=O)N2[C@@H](Cc3ccc(O)cc3)C(=O)N(Cc3cccc(N(C)C(=O)OC)c3)C[C@@H]2N1C(=O)NCc1ccccc1` [D] gave an IC50 [1] of 10.2 µM.
With `C=CCN1CC(=O)N2[C@@H](Cc3ccc(O)cc3)C(=O)N(Cc3cccc4c3nc(C(F)(F)F)n4C)C[C@@H]2N1C(=O)NCc1ccccc1` [E] the IC50 [1] was greater than 10 µM.
With `C=CCN1CC(=O)N2[C@@H](Cc3ccc(O)cc3)C(=O)N(Cc3cccc(C(=O)N4CCCC4)c3)C[C@@H]2N1C(=O)NCc1ccccc1` [compound 1] the IC50 [2] was 5 µM.
Work on `C=CCN1CC(=O)N2[C@@H](Cc3ccc(O)cc3)C(=O)N(Cc3cccc(N(C)C=O)c3)C[C@@H]2N1C(=O)NCc1ccccc1` [compound 2] yielded an IC50 [2] of 5.23 µM.
With `C=CCN1CC(=O)N2[C@@H](Cc3ccc(O)cc3)C(=O)N(Cc3cccnc3Br)C[C@@H]2N1C(=O)NCc1ccccc1` [compound 3] the IC50 [2] was 5.33 µM.
`C=CCN1CC(=O)N2[C@@H](Cc3ccc(O)cc3)C(=O)N(Cc3cccc4c3ncn4CC#N)C[C@@H]2N1C(=O)NCc1ccccc1` [compound 4] gave an IC50 [2] of 5.4 µM.
`C=CCN1CC(=O)N2[C@@H](Cc3ccc(O)cc3)C(=O)N(Cc3cccc(-c4ccc(S(C)(=O)=O)cc4)n3)C[C@@H]2N1C(=O)NCc1ccccc1` [compound 6] showed an IC50 [2] of 6.78 µM.
Work on `C=CCN1CC(=O)N2[C@@H](Cc3ccc(O)cc3)C(=O)N(Cc3cccnc3N3CCC(N4CCCC4)CC3)C[C@@H]2N1C(=O)NCc1ccccc1` [compound 7] yielded an IC50 [2] of 6.84 µM.
In the case of `C=CCN1CC(=O)N2[C@@H](Cc3ccc(O)cc3)C(=O)N(Cc3cccc4c(=O)ccoc34)C[C@@H]2N1C(=O)NCc1ccccc1` [compound 9], the IC50 [2] is reported as 6.95 µM.
`C=CCN1CC(=O)N2[C@@H](Cc3ccc(O)cc3)C(=O)N(Cc3cccc(-c4ccc[nH]c4=O)c3)C[C@@H]2N1C(=O)NCc1ccccc1` [compound 10] showed an IC50 [2] of 7.02 µM.
`C=CCN1CC(=O)N2[C@@H](Cc3ccc(O)cc3)C(=O)N(Cc3cccc(C(=O)OC)c3)C[C@@H]2N1C(=O)NCc1ccccc1` [compound 11] showed an IC50 [2] of 7.58 µM.
`C=CCN1CC(=O)N2[C@@H](Cc3ccc(O)cc3)C(=O)N(Cc3cccc(C(=O)NCC4CC4)c3)C[C@@H]2N1C(=O)NCc1ccccc1` [compound 12] showed an IC50 [2] of 7.65 µM.
In the case of `C=CCN1CC(=O)N2[C@@H](Cc3ccc(O)cc3)C(=O)N(Cc3cccc(C(=O)NC)c3)C[C@@H]2N1C(=O)NCc1ccccc1` [compound 13], the IC50 [2] is reported as 8 µM.
For `C=CCN1CC(=O)N2[C@@H](Cc3ccc(O)cc3)C(=O)N(Cc3cccc4c3ncn4CCC)C[C@@H]2N1C(=O)NCc1ccccc1` [compound 14], the IC50 [2] was 8.42 µM.
In the case of `C=CCN1CC(=O)N2[C@@H](Cc3ccc(O)cc3)C(=O)N(Cc3cccc(C(C)=O)c3)C[C@@H]2N1C(=O)NCc1ccccc1` [compound 15], the IC50 [2] is reported as 8.79 µM.
With `C=CCN1CC(=O)N2[C@@H](Cc3ccc(OS(N)(=O)=O)cc3)C(=O)N(Cc3cccc(N4CCCC4=O)c3)C[C@@H]2N1C(=O)NCc1ccccc1` [compound 16] the IC50 [2] was 9 µM.
`C=CCN1CC(=O)N2[C@@H](Cc3ccc(O)cc3)C(=O)N(Cc3cccc(C(=O)NCC4CCCO4)c3)C[C@@H]2N1C(=O)NCc1ccccc1` (stereo partly shown) [compound 17] gave an IC50 [2] of 9.02 µM.
`C=CCN1CC(=O)N2[C@@H](Cc3ccc(O)cc3)C(=O)N(Cc3cccc(NS(C)(=O)=O)c3)C[C@@H]2N1C(=O)NCc1ccccc1` [compound 18] showed an IC50 [2] of 9.16 µM.
`C=CCN1CC(=O)N2[C@@H](Cc3ccc(O)cc3)C(=O)N(Cc3cccc(C#N)c3)C[C@@H]2N1C(=O)NCc1ccccc1` [compound 19] showed an IC50 [2] of 9.65 µM.
`C=CCN1CC(=O)N2[C@@H](Cc3ccc(O)cc3)C(=O)N(Cc3cccc(C(=O)N4CCOCC4)c3)C[C@@H]2N1C(=O)NCc1ccccc1` [compound 20] gave an IC50 [2] of 10.1 µM.
For `C=CCN1CC(=O)N2[C@@H](Cc3ccc(O)cc3)C(=O)N(Cc3cccc(N(C)C(=O)OC)c3)C[C@@H]2N1C(=O)NCc1ccccc1` [compound 21], the IC50 [2] was 10.2 µM.
`C=CCN1CC(=O)N2[C@@H](Cc3ccc(O)cc3)C(=O)N(Cc3cccc(C(=O)N(C)C)c3)C[C@@H]2N1C(=O)NCc1ccccc1` [compound 22] was tested, and the IC50 [2] was 11.6 µM.
`C=CCN1CC(=O)N2[C@@H](Cc3ccc(OS(N)(=O)=O)cc3)C(=O)N(Cc3cccc4c3ncn4C)C[C@@H]2N1C(=O)NCc1ccccn1` [compound 23] showed an IC50 [2] of 12 µM.
With `C=CCN1CC(=O)N2[C@@H](Cc3ccc(O)cc3)C(=O)N(Cc3cccc(-c4cccc(C(=O)O)c4)c3)C[C@@H]2N1C(=O)NCc1ccccc1` [compound 24] the IC50 [2] was 12.9 µM.
`C=CCN1CC(=O)N2[C@@H](Cc3ccc(O)cc3)C(=O)N(Cc3cccc(C(=O)NC)n3)C[C@@H]2N1C(=O)NCc1ccccc1` [compound 25] showed an IC50 [2] of 13.1 µM.
Work on `C=CCN1CC(=O)N2[C@@H](Cc3ccc(O)cc3)C(=O)N(Cc3ccccc3-n3cnnn3)C[C@@H]2N1C(=O)NCc1ccccc1` [compound 26] yielded an IC50 [2] of 13.5 µM.
Compound `C=CCN1CC(=O)N2[C@@H](Cc3ccc(O)cc3)C(=O)N(Cc3cccc(NC(=O)NC(N)=O)c3)C[C@@H]2N1C(=O)NCc1ccccc1` [compound 27] has an IC50 [2] of 16.8 µM.
Compound `C=CCN1CC(=O)N2[C@@H](Cc3ccc(O)cc3)C(=O)N(Cc3cccc(NC(C)=O)c3)C[C@@H]2N1C(=O)NCc1ccccc1` [compound 28] has an IC50 [2] of 17.9 µM.
`C#CCN1C[C@H]2N(C(=O)CN(CC=C)N2C(=O)NCc2ccccc2)[C@@H](Cc2ccc(O)cc2)C1=O` [compound 29] was tested, and the IC50 [2] was 18.1 µM.
With `C=CCN1CC(=O)N2C(CN(Cc3ccccc3S(C)(=O)=O)C(=O)[C@@H]2Cc2ccc(O)cc2)N1C(=O)NCc1ccccc1` (stereo partly shown) [compound 30] the IC50 [2] was 18.7 µM.
With `C=CCN1CC(=O)N2[C@@H](Cc3ccc(O)cc3)C(=O)N(Cc3cccc(C(=O)OCC)n3)C[C@@H]2N1C(=O)NCc1ccccc1` [compound 31] the IC50 [2] was 18.9 µM.
Work on `C=CCN1CC(=O)N2[C@@H](Cc3ccc(O)cc3)C(=O)N(Cc3cccc(C(=O)NCCOC)n3)C[C@@H]2N1C(=O)NCc1ccccc1` [compound 32] yielded an IC50 [2] of 19.9 µM.
Work on `C=CCN1CC(=O)N2[C@@H](Cc3ccc(O)cc3)C(=O)N(Cc3cccc(NC(=O)OC)c3)C[C@@H]2N1C(=O)NCc1ccccc1` [compound 33] yielded an IC50 [2] of 24.2 µM.
Work on `C=CCN1CC(=O)N2[C@@H](Cc3ccc(O)cc3)C(=O)N(Cc3ccccc3S(C)(=O)=O)C[C@@H]2N1C(=O)NCc1ccccn1` [compound 34] yielded an IC50 [2] of 24.5 µM.
For `C=CCN1CC(=O)N2[C@@H](Cc3ccc(OS(N)(=O)=O)cc3)C(=O)N(Cc3cccc(C(=O)NC)n3)C[C@@H]2N1C(=O)NCc1ccccc1` [compound 35], the IC50 [2] was 26.4 µM.
Work on `C=CCN1CC(=O)N2[C@@H](Cc3ccc(O)cc3)C(=O)N(Cc3cccc(NC(N)=O)c3)C[C@@H]2N1C(=O)NCc1ccccc1` [compound 37] yielded an IC50 [2] of 34.3 µM.
`C=CCN1CC(=O)N2[C@@H](Cc3ccc(O)cc3)C(=O)N(Cc3cccc(C(=O)N(C)C)n3)C[C@@H]2N1C(=O)NCc1ccccc1` [compound 39] gave an IC50 [2] of 35.3 µM.
In the case of `CN1CC(=O)N2[C@@H](Cc3ccc(O)cc3)C(=O)N(Cc3cccc4c3ncn4C)C[C@@H]2N1C(=O)NCc1ccccc1` [compound 40], the IC50 [2] is reported as 39.1 µM.
Work on `C=CCN1CC(=O)N2[C@@H](Cc3ccc(O)cc3)C(=O)N(Cc3cccc(C(=O)NOC)c3)C[C@@H]2N1C(=O)NCc1ccccc1` [compound 41] yielded an IC50 [2] of 41.4 µM.
Compound `C=CCN1CC(=O)N2[C@@H](Cc3ccc(O)cc3)C(=O)N(Cc3cccc(C(=O)NCCO)c3)C[C@@H]2N1C(=O)NCc1ccccc1` [compound 42] has an IC50 [2] of 44.1 µM.
In the case of `C=CCN1CC(=O)N2[C@@H](Cc3ccc(O)cc3)C(=O)N(Cc3cccc(C(N)=O)c3[N+](=O)[O-])C[C@@H]2N1C(=O)NCc1ccccc1` [compound 43], the IC50 [2] is reported as 44.4 µM.
`C=CCN1CC(=O)N2[C@@H](Cc3ccc(O)cc3)C(=O)N(Cc3ccnc(C(N)=O)c3)C[C@@H]2N1C(=O)NCc1ccccc1` [compound 44] showed an IC50 [2] of 45.1 µM.
Compound `C=CCN1CC(=O)N2[C@@H](Cc3ccc(O)cc3)C(=O)N(Cc3cccc4c3nc(C(F)(F)F)n4C)C[C@@H]2N1C(=O)NCc1ccccc1` [compound 45] has an IC50 [2] greater than 10 µM.
Compound `C=CCN1CC(=O)N2[C@@H](Cc3ccc(O)cc3)C(=O)N(Cc3cccc(N4CCCC4=O)c3)C[C@@H]2N1C(=O)NCc1ccccn1` [compound 46] has an IC50 [2] greater than 50 µM.
In the case of `C=CCN1CC(=O)N2[C@@H](Cc3ccc(O)cc3)C(=O)N(Cc3cccc4c3ncn4C)C[C@@H]2N1C(=O)NCc1ccccn1` [compound 47], the IC50 [2] is reported as greater than 50 µM.
In the case of `C=CCN1CC(=O)N2[C@@H](Cc3ccccc3)C(=O)N(Cc3cccc(C(=O)O)c3)C[C@@H]2N1C(=O)NCc1ccccc1` [compound 48], the IC50 [2] is reported as greater than 50 µM.
`O=C(O)c1cccc(CN2C[C@H]3N(C(=O)CN(Cc4ccccc4)N3C(=O)NCc3ccccc3)[C@@H](Cc3ccc(O)cc3)C2=O)c1` [compound 49] showed an IC50 [2] greater than 50 µM.
`C=CCN1CC(=O)N2[C@@H](Cc3ccc(O)cc3)C(=O)N(Cc3cccc(C(=O)O)c3)C[C@@H]2N1C(=O)NCc1ccc(Cl)cc1Cl` [compound 50] gave an IC50 [2] greater than 50 µM.
Compound `C=CCN1CC(=O)N2[C@@H](Cc3ccc(O)cc3)C(=O)N(Cc3cccc(C(=O)N[C@@H](CCC(=O)O)C(=O)O)c3)C[C@@H]2N1C(=O)NCc1ccccc1` [compound 51] has an IC50 [2] greater than 50 µM.
With `C=CCN1CC(=O)N2[C@@H](Cc3ccc(O)cc3)C(=O)N(Cc3cccc(C(N)=O)n3)C[C@@H]2N1C(=O)NCc1ccccc1` [compound 52] the IC50 [2] was greater than 50 µM.
